Source: PubChem BioAssay AID1963982 (Molecular Pharmacology Branch, DTP, NCI, 2024)

Tested on: 313798-341-R-J2-PDC spheroids, viability
Assay: Anticancer human tumor 313798-341-R-J2-PDC patient-derived cervical squamous cell carcinoma cell line growth inhibition [PI3K]
Settings: spheroids with HUVEC and MSC; for IC50: curve of first compound; for viability, T/C: stronger effect = lower value
How it was run: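 Viability of mixed-cell spheroids was determined after exposure to pairwise combinations, one partner being inavolisib, alpelisib, duvelisib or copanlisib. Highest tested concentration matched clinical Cmax where known and 10 microM where not, descending in half-log steps.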

[1] = second compound 0.0316 µM, first compound 0.0316 µM
[2] = second compound 0.0316 µM, first compound 0.1 µM
[3] = second compound 0.0316 µM, first compound 0.316 µM
[4] = second compound 0.0316 µM, first compound 1 µM
[5] = second compound 0.1 µM, first compound 0.0316 µM
[6] = second compound 0.1 µM, first compound 0.1 µM
[7] = second compound 0.1 µM, first compound 0.316 µM
[8] = second compound 0.1 µM, first compound 1 µM
[9] = second compound 0.316 µM, first compound 0.0316 µM
[10] = second compound 0.316 µM, first compound 0.1 µM
[11] = second compound 0.316 µM, first compound 0.316 µM
[12] = second compound 0.316 µM, first compound 1 µM
[13] = second compound 1 µM, first compound 0.0316 µM
[14] = second compound 1 µM, first compound 0.1 µM
[15] = second compound 1 µM, first compound 0.316 µM
[16] = second compound 1 µM, first compound 1 µM
[17] = second compound 3.16 µM, first compound 0.0316 µM
[18] = second compound 3.16 µM, first compound 0.1 µM
[19] = second compound 3.16 µM, first compound 0.316 µM
[20] = second compound 3.16 µM, first compound 1 µM
[21] = second compound 10 µM, first compound 0.0316 µM
[22] = second compound 10 µM, first compound 0.1 µM
[23] = second compound 10 µM, first compound 0.316 µM
[24] = second compound 10 µM, first compound 1 µM
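Also: spheroids exposed to compounds for seven days.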
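For viability, T/C in this document: 100% = DMSO vehicle control viability.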

How did the IC50 (second compound 0.0316 µM) turn out when `CCN1CCN(Cc2ccc(Nc3ncc(F)c(-c4cc(F)c5nc(C)n(C(C)C)c5c4)n3)nc2)CC1` + CC(Nc1ncnc2nc[nH]c12)c1cc2cccc(Cl)c2c(=O)n1-c1ccccc1 was run?
Its IC50 is over 1000 nM.

What about the IC50 (second compound 0.1 µM) of the same compound?
The IC50 was over 1000 nM.

And the IC50 (second compound 0.316 µM)?
The IC50 was over 1000 nM.

And the IC50 (second compound 1 µM)?
The IC50 was over 1000 nM.

And the IC50 (second compound 3.16 µM)?
Its IC50 is over 1000 nM.

And the IC50 (second compound 10 µM)?
Its IC50 is over 1000 nM.

What about the viability, T/C (second compound 0.0316 µM, first compound 0.00316 µM) of the same compound?
The viability, T/C was 98.9%.

And the viability, T/C (second compound 0.0316 µM, first compound 0.01 µM)?
The viability, T/C was 98.3%.

What about the viability, T/C [1] of the same compound?
Its viability, T/C is 114%.

And the viability, T/C [2]?
Its viability, T/C is 114%.

And the viability, T/C [3]?
The viability, T/C was 96%.

And the viability, T/C [4]?
The viability, T/C was 123%.

What about the viability, T/C (second compound 0.1 µM, first compound 0.00316 µM) of the same compound?
Its viability, T/C is 105%.

And the viability, T/C (second compound 0.1 µM, first compound 0.01 µM)?
The viability, T/C was 110%.

What about the viability, T/C [5] of the same compound?
The viability, T/C was 103%.

And the viability, T/C [6]?
The viability, T/C was 113%.

What about the viability, T/C [7] of the same compound?
The viability, T/C was 102%.

And the viability, T/C [8]?
Its viability, T/C is 115%.

What about the viability, T/C (second compound 0.316 µM, first compound 0.00316 µM) of the same compound?
The viability, T/C was 94.5%.

What about the viability, T/C (second compound 0.316 µM, first compound 0.01 µM) of the same compound?
The viability, T/C was 100%.

And the viability, T/C [9]?
Its viability, T/C is 92.3%.

And the viability, T/C [10]?
The viability, T/C was 96.9%.

And the viability, T/C [11]?
Its viability, T/C is 104%.

What about the viability, T/C [12] of the same compound?
Its viability, T/C is 107%.

And the viability, T/C (second compound 1 µM, first compound 0.00316 µM)?
The viability, T/C was 104%.

And the viability, T/C (second compound 1 µM, first compound 0.01 µM)?
The viability, T/C was 95.3%.

What about the viability, T/C [13] of the same compound?
Its viability, T/C is 99.8%.

And the viability, T/C [14]?
The viability, T/C was 101%.

And the viability, T/C [15]?
The viability, T/C was 104%.

And the viability, T/C [16]?
Its viability, T/C is 109%.

And the viability, T/C (second compound 3.16 µM, first compound 0.00316 µM)?
Its viability, T/C is 103%.

What about the viability, T/C (second compound 3.16 µM, first compound 0.01 µM) of the same compound?
The viability, T/C was 94.6%.

And the viability, T/C [17]?
Its viability, T/C is 98.1%.

And the viability, T/C [18]?
Its viability, T/C is 99.8%.

What about the viability, T/C [19] of the same compound?
The viability, T/C was 108%.

What about the viability, T/C [20] of the same compound?
Its viability, T/C is 89.8%.

And the viability, T/C (second compound 10 µM, first compound 0.00316 µM)?
The viability, T/C was 100%.

What about the viability, T/C (second compound 10 µM, first compound 0.01 µM) of the same compound?
The viability, T/C was 91.5%.

And the viability, T/C [21]?
The viability, T/C was 83.9%.

And the viability, T/C [22]?
Its viability, T/C is 85.8%.

What about the viability, T/C [23] of the same compound?
Its viability, T/C is 82.4%.

And the viability, T/C [24]?
Its viability, T/C is 89.5%.

Which results are given for `CC(C)NCC(C(=O)N1CCN(c2ncnc3c2C(C)CC3O)CC1)c1ccc(Cl)cc1` (centres undefined) + Cc1nc(NC(=O)N2CCCC2C(N)=O)sc1-c1ccnc(C(C)(C)C(F)(F)F)c1?
IC50 (second compound 0.0316 µM): 2080 nM; IC50 (second compound 0.1 µM): 2770 nM; IC50 (second compound 0.316 µM): 1620 nM; IC50 (second compound 1 µM): 1420 nM; IC50 (second compound 3.16 µM): 345 nM; IC50 (second compound 10 µM): < 31.6 nM; viability, T/C [1]: 118%; viability, T/C [2]: 100%; viability, T/C [3]: 88.7%; viability, T/C [4]: 65.7%; viability, T/C (second compound 0.0316 µM, first compound 3.16 µM): 37.8%; viability, T/C (second compound 0.0316 µM, first compound 10 µM): 32.4%; viability, T/C [5]: 107%; viability, T/C [6]: 102%; viability, T/C [7]: 87.8%; viability, T/C [8]: 72.4%; viability, T/C (second compound 0.1 µM, first compound 3.16 µM): 45.3%; viability, T/C (second compound 0.1 µM, first compound 10 µM): 33.6%; viability, T/C [9]: 101%; viability, T/C [10]: 93%; viability, T/C [11]: 94%; viability, T/C [12]: 58.5%; viability, T/C (second compound 0.316 µM, first compound 3.16 µM): 39.9%; viability, T/C (second compound 0.316 µM, first compound 10 µM): 32.7%; viability, T/C [13]: 84.9%; viability, T/C [14]: 97.4%; viability, T/C [15]: 86.2%; viability, T/C [16]: 55.3%; viability, T/C (second compound 1 µM, first compound 3.16 µM): 39.2%; viability, T/C (second compound 1 µM, first compound 10 µM): 30.3%; viability, T/C [17]: 65.9%; viability, T/C [18]: 58.6%; viability, T/C [19]: 49.4%; viability, T/C [20]: 45.8%; viability, T/C (second compound 3.16 µM, first compound 3.16 µM): 32.7%; viability, T/C (second compound 3.16 µM, first compound 10 µM): 30.2%; viability, T/C [21]: 34%; viability, T/C [22]: 33.5%; viability, T/C [23]: 34.6%; viability, T/C [24]: 34.3%; viability, T/C (second compound 10 µM, first compound 3.16 µM): 27.8%; viability, T/C (second compound 10 µM, first compound 10 µM): 22.3%
